# Literature values, collected in patent publication US20080200492A1, “METHODS FOR THE TREATMENT OF ALCOHOL ABUSE, ADDICTION AND DEPENDENCY” (priority 2006, published 2008).
# System: golden hamster
# Conditions: cited from earlier work
structure (smiles),measurement,value
O=c1c(-c2ccc(O)cc2)coc2cc(O[C@@H]3O[C@H](CO)[C@@H](O)[C@H](O)[C@H]3O)ccc12 [Daidzin],"Alcohol drinking, water or food intake","decreases alcohol drinking in the golden hamster, without producing a decrease in water or food intake"
